Assays:
[1] = target: T1, JAK3 (Homo sapiens, UniProt P52333); assay: Z'-LYTE enzyme activity assay (SelectScreen Kinase Profiling), JAK3
T1 sequence (P52333 1-1124): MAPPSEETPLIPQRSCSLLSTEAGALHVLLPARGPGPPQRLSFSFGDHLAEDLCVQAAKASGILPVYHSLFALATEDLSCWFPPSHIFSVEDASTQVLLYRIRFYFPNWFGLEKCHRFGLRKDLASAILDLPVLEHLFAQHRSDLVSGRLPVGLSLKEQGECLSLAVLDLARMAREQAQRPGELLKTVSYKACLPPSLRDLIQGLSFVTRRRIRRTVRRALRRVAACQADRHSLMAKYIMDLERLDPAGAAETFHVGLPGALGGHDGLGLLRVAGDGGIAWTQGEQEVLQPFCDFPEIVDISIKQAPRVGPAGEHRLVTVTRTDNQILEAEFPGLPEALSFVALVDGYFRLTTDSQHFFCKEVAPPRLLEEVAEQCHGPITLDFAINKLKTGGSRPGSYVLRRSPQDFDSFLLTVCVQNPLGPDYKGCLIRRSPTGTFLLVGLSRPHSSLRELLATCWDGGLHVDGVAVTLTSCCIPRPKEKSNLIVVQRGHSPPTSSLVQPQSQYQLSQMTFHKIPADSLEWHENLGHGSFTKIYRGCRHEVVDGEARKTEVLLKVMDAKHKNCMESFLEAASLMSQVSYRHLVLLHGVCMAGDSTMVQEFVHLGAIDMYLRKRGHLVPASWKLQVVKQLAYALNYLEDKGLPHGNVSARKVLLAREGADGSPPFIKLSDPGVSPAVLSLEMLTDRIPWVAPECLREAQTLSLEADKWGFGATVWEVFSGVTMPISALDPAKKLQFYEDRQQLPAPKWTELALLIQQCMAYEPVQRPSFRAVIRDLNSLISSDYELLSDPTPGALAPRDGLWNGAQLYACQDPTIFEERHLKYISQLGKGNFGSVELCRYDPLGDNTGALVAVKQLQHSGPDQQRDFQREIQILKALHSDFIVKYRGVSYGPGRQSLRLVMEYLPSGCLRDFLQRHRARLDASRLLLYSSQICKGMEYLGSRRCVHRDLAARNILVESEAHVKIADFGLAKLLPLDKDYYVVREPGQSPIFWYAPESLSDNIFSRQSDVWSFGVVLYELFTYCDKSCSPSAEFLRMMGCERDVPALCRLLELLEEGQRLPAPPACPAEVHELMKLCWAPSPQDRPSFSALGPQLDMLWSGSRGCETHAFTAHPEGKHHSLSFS

[2] = target: TYK2 (Homo sapiens, UniProt P29597); assay: Z'-LYTE enzyme activity assay (SelectScreen Kinase Profiling), TYK2
[3] = target: JAK2 (Homo sapiens, UniProt O60674); assay: Z'-LYTE enzyme activity assay (SelectScreen Kinase Profiling), JAK2
[4] = test system: CXCR3; assay: CXCR3 expression in activated primary murine T cells (flow cytometry); format: cell-based, B6 mice; conditions: anti-CD3/CD28 activated, 3 days, dose-dependent (0.32-1000 nM)
Text: To identify the top candidates whose effects on GvHD will be further tested in vivo, we next screened the WU derivatives by evaluating their functional inhibitory activity on the expression of CXCR3 in primary murine T cells activated by anti-CD3/CD28 beads. CXCR3 is a chemokine receptor and surrogate marker of IFNGR-JAK1/JAK2 signaling.
Figure 3 Inhibitory effect of WU derivatives on the expression of CXCR3 compared to commercially available JAK inhibitors in primary murine T cells. Primary murine T cells were isolated from B6 mice and treated with WU derivatives or known JAK inhibitors (in the order of doses of each drug from the left: 0, 0.32, 1.6, 8, 40, 200, 1000 nM) in the presence of anti-CD3/CD28 activators. After 3 days, the expression of CXCR3 on (A) CD3, (B) CD4, and (C) CD8 T cells was determined by flow cytometry.
T cells from in vitro primary murine T cell culture, fresh peripheral blood, or whole splenocytes were analyzed according to cell surface and intracellular markers. Surface markers were directly stained with flow antibodies for 20 min at 4 °C. For intracellular staining (FOXP3 and T-bet), cells were fixed and permeabilized after surface staining using appropriate buffers (One-step intracellular nuclear protein staining protocol, eBioscience, San Diego, CA, USA) and stained with flow antibodies. The antibodies used for flow cytometric analyses for mouse cells were as follows: FOXP3, T-BET, and CD183 (eBioscience, San Diego, CA, USA); CD3, H2-Kb, H2-Kd, CD4, B220, CD11b, CD11c, Ly6C, and DEC205 (BioLegend, San Diego, CA); and CD8, CD45.2, CD80, and Ly6G (BD Pharmingen, San Jose, CA, USA). All cells were run on a ZE5 Cell Analyzer (BD Biosciences, Mountain View, CA, USA) or Attune® NxT (Thermofisher Scientific, Waltham, MA, USA) and analyzed with the FlowJo software, version 10.9.0 (FlowJo LLC., Ashland, OR, USA). […]

[5] = target: JAK1 (Homo sapiens, UniProt P23458); assay: Z'-LYTE enzyme activity assay (SelectScreen Kinase Profiling), JAK1
JAK1, sequence (P23458 whole entry): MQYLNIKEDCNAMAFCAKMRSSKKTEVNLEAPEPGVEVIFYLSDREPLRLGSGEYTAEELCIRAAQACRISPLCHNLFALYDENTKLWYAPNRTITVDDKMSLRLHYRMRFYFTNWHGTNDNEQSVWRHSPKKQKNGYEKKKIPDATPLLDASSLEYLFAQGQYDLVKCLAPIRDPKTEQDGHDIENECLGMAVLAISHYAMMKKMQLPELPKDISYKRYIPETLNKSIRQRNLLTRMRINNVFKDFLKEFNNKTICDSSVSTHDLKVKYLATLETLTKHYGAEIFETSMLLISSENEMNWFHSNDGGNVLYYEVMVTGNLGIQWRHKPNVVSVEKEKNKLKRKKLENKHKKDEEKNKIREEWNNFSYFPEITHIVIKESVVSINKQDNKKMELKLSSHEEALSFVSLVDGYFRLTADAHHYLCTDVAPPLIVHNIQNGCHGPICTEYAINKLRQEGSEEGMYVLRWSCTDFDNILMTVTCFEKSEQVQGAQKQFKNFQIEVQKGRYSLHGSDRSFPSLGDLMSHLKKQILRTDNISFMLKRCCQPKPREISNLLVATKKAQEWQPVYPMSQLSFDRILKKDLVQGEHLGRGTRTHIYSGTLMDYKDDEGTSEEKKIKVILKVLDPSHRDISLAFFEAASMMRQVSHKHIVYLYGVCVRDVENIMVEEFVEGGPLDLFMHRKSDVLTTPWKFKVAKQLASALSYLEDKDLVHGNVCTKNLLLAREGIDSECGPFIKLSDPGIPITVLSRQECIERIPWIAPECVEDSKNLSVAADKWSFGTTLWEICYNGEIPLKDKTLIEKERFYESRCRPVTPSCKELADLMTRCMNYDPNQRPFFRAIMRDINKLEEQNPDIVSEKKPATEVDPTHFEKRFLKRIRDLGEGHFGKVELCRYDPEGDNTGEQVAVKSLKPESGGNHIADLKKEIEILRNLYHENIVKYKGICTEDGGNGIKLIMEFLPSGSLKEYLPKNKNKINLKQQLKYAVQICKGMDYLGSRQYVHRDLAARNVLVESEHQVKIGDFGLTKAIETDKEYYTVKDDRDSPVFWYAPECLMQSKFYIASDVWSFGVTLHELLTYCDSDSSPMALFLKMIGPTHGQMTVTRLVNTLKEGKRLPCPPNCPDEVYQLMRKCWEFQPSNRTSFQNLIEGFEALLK

JAK2, sequence (O60674 whole entry): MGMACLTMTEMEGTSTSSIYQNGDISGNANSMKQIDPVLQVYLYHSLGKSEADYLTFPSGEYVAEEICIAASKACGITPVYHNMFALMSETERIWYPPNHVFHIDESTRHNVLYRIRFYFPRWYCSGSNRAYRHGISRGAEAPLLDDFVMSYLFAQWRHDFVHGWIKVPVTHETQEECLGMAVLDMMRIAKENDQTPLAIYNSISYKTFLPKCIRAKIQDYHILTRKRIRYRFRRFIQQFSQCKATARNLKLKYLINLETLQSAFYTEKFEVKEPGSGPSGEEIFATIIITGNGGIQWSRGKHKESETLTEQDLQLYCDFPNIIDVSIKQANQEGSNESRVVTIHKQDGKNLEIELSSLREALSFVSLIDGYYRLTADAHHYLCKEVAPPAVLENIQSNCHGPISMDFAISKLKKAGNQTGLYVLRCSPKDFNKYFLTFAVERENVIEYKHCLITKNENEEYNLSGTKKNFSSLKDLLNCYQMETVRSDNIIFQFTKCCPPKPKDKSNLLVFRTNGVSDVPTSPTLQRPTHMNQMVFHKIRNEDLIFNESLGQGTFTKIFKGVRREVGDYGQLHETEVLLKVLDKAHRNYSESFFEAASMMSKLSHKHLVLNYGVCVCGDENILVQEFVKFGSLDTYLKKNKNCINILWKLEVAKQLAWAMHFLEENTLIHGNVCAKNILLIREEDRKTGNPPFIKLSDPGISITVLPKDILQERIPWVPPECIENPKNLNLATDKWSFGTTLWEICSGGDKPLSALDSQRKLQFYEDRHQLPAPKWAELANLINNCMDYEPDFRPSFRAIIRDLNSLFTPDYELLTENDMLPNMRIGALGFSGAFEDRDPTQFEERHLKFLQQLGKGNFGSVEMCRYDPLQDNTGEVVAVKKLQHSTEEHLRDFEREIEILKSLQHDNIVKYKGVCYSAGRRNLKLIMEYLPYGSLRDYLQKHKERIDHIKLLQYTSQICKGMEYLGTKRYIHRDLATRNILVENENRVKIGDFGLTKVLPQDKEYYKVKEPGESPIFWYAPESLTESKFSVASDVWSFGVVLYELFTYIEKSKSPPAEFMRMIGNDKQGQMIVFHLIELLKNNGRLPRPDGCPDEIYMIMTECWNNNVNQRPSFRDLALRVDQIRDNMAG
TYK2, sequence (P29597 whole entry): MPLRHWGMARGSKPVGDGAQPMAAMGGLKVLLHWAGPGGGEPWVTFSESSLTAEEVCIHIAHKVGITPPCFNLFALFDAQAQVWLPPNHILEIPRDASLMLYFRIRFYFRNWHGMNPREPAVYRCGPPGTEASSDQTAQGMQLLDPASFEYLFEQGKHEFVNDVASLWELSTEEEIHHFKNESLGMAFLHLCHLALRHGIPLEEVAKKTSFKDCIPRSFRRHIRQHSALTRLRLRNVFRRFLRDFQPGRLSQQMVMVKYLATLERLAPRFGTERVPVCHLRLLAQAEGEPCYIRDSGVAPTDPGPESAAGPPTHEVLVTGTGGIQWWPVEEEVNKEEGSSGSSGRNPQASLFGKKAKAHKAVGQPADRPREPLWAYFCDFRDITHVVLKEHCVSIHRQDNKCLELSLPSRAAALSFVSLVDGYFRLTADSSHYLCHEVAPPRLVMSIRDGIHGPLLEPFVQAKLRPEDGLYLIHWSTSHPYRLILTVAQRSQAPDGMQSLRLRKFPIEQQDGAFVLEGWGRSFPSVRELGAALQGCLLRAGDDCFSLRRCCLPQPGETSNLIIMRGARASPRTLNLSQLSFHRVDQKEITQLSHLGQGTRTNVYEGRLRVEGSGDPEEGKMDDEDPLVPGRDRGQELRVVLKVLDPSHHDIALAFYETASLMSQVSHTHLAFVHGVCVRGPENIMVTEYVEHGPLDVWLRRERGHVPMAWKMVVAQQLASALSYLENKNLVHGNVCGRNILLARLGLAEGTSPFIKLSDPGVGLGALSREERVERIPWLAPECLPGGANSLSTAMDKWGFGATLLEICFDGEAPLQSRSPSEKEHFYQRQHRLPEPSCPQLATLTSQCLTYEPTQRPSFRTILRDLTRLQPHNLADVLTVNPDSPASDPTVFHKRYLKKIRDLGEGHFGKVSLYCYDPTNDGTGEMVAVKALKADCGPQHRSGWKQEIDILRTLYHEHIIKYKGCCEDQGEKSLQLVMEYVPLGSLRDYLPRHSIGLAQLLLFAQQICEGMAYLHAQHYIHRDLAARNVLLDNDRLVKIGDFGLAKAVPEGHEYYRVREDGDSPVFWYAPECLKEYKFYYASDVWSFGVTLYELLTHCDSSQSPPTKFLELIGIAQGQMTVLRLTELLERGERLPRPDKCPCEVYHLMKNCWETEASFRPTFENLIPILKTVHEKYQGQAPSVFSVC

CCS(=O)(=O)NC1CC2(C1)CC(CC#N)(n1cc(-c3ncnc4[nH]ccc34)cn1)C2 (stereo not drawn) [WU4] showed an IC50 ([1]; IC50 JAK3, ATP at 1 mM) of 84 nM, an IC50 ([1]; IC50 JAK3, ATP at app. Km) of 1.14 nM and an IC50 ([2]; IC50 TYK2, ATP at 1 mM) of 1.09 nM. For the same compound, the IC50 ([2]; IC50 TYK2, ATP at app. Km) was 0.417 nM, the IC50 ([3]; IC50 JAK2, ATP at 1 mM) was 2.26 nM and the IC50 ([3]; IC50 JAK2, ATP at app. Km) was 0.133 nM. The “CXCR3 expression on T cells” value [4] was “significant reductions in CXCR3 expression”, the IC50 ([5]; IC50 JAK1, ATP at 1 mM) was 0.52 nM and the IC50 ([5]; IC50 JAK1, ATP at app. Km) was 0.453 nM.

N#CCC1(n2cc(-c3ncnc4[nH]ccc34)cn2)CC2(CC(NS(=O)(=O)C(F)(F)F)C2)C1 (stereo not drawn) [WU6] gave an IC50 ([1]; IC50 JAK3, ATP at 1 mM) of 311 nM, an IC50 ([1]; IC50 JAK3, ATP at app. Km) of 6.4 nM and an IC50 ([2]; IC50 TYK2, ATP at 1 mM) of 6.48 nM. It also gave an IC50 ([2]; IC50 TYK2, ATP at app. Km) of 0.766 nM, an IC50 ([3]; IC50 JAK2, ATP at 1 mM) of 6.96 nM and an IC50 ([3]; IC50 JAK2, ATP at app. Km) of 0.347 nM. For the same compound, the “CXCR3 expression on T cells” value [4] was “significantly downregulated”, the IC50 ([5]; IC50 JAK1, ATP at 1 mM) was 3.43 nM and the IC50 ([5]; IC50 JAK1, ATP at app. Km) was 0.6 nM.

For N#CCC1(n2cc(-c3ncnc4[nH]ccc34)cn2)CCS(=O)(=O)CC1 [WU8], the IC50 ([1]; IC50 JAK3, ATP at 1 mM) was 549 nM, the IC50 ([1]; IC50 JAK3, ATP at app. Km) was 18.3 nM and the IC50 ([2]; IC50 TYK2, ATP at 1 mM) was 49.1 nM. It also gave an IC50 ([2]; IC50 TYK2, ATP at app. Km) of 2.84 nM, an IC50 ([3]; IC50 JAK2, ATP at 1 mM) of 14.9 nM and an IC50 ([3]; IC50 JAK2, ATP at app. Km) of 0.535 nM. The “CXCR3 expression on T cells” value [4] was “significant reductions in CXCR3 expression”, the IC50 ([5]; IC50 JAK1, ATP at 1 mM) was 7.15 nM and the IC50 ([5]; IC50 JAK1, ATP at app. Km) was 1.07 nM.

From publication PMC11052071, “Novel JAK Inhibitors to Reduce Graft-Versus-Host Disease after Allogeneic Hematopoietic Cell Transplantation in a Preclinical Mouse Model” (Molecules, 2024)
